Source: patent EP0579806B1, “MEDICAMENT FOR THE TREATMENT AND/OR PROPHYLAXIS OF FOLATE METABOLISM DISORDERS” (Kragler, Peter, priority 1992, dated 1993)

Test: Red blood count and megakaryocyte function before and after therapy in HIV-positive patients
Format: in vivo, Mensch
Conditions: patients pretreated with a chain terminator, before therapy
Text: Folgende Laborparameter wurden vor und nach der Therapie an 23 HIV-positiven Patienten mit verschiedener klinischer Symptomatik bestimmt: • 1. Rotes Blutbild und Megakaryozytenfunktion • 2. Weißes Blutbild und Lymphozytensubpopulation • 3. Lymphozytenstimulation • 4. Proteine • a) Gesamteiweiß • b) Elektrophorese • c) Immunelektrophorese • d) zirkulierende Immunkomplexe (CIC) • 5. B12-Gehalt • a) Serum pg/ml • b) Erythrozyten pg/ml Zellen • c) mononukleäre Zellen pg/ml Zellen • 6. Folat-Gehalt • a) Serum ng/ml • b) Erythrozyten ng/ml Zellen • c) mononukleäre Zellen ng/ml Zellen • 7. HIV (Elisa) in Titerstufen • 8. HIV - Westernblot (P24-core, P55-gag, gP41-env, gP120-env, gP160-env) mit Bewertung der Banden von + bis ++++ • 9. β2-Mikroglobulin korreliert • a) mit der Aktivität der NK-Zellen (ADCC = antibody dependent cellmediated cytotoxicity) • b) mit der Aktivität der CD8- NK-Zellen • 10. Neopterin Zwischenprodukt der Reaktion GPT (Guanosintriphosphat) --> Tetrahydrobiopterin (Hydroxylierung von Phenylalanin, Tyrosin und Tryptophan) Die Bedeutung von Neopterin ist zur Zeit noch Gegenstand wissenschaftlicher Untersuchungen. • 11. Lysozym (Muramidase) Messung der Granulozytenaktivität • 12. Serologie sexuell übertragbarer Krankheiten (STD) […]

Which “makrozytäre, hyperchrome Anämie (MCV, Hbe erhöht)” value does the source give for `Cc1cn([C@H]2C[C@H](N=[N+]=[N-])[C@@H](CO)O2)c(=O)[nH]c1=O` [AZT, Azidothymidin] here?
The value was “noch ausgeprägter”.
